# Patent US20120213789A1, “New Molecular Target for Treatment of Cancer” (priority 2001, published 2012)
# How the values were obtained:
# LNCaP Prostate Cell Line = assay: Dual label UROC28/Bcl-2 flow cytometry after SPB treatment; assay type: cell-based, human
# Experimental: (§1) Cells were grown to 70-80% confluence at 37° C. and 5% CO2 in T-75 tissue culture plastic flasks. SPB stock solution was added to final concentrations of 0.5, 5.0, 10.0, and 25.0 mM in appropriate fresh media to the cell cultures. Cells were incubated at 37° C. and 5% CO2 for 72 hours. Attached cells were then harvested using a solution of 0.05% trypsin and 0.53 mM EDTA (Invitrogen Corp.). Attached cells were then pooled with any the detached cells and washed with PBS pH 7.2. Cell numbers and percent viability were determined using Trypan blue dye exclusion and a hemacytometer. At the time of their use in an experiment the viability was usually about 85% for untreated cells and a range of about 15-70% for treated cells, with the lower viabilities found at higher SPB concentrations (Thompson C, 1995; Cory et al., 1998; van Engeland et al., 1996).
# UC28(C) is 2.14 mg/ml rabbit polyclonal aliquot directed against the inventors' UC28 patented biomarker developed by UCor R&D gene discovery program. The Antibody was produced against a twenty amino acid (AA) synthetic peptide from the predicted AA sequence (AA 21-37) UCor, Inc. 840 Research Parkway Oklahoma City, Okla. 73104.
# Goat Anti-Rabbit CY5 polyclonal Fluorchrome was used as the secondary conjugate for UC28 C rabbit polyclonal antibody and a background control for UC28 C polyclonal. Vendor is Jackson ImmunoResearch Laboratories, Inc. 872 West Baltimore Pike, P.O. Box 9 West Grove, Pa. 19390.
# Bc12 IgG1 kappa-FITC isomer 1 is a purified monoclonal mouse specific for Bc1-2 protein. Vendor is Dalco Corporation 6392 Via Real, Carpinteria, Calif. 93013 USA.
# MsIgG1 kappa-FITC isomer 1 is a purified isotype specific control for Bc1-2 monoclonal antibody. Vendor is Dako Corporation 6392 Via Real, Carpinteria, Calif. 93013 USA.
# Cytofix/Cytoperm™ ICit enables fixation and permeabilization of cells prior to staining with fluorochrome-conjugated antibodies. Vendor is BD-PharMingen, 10975 Torreyana Road, San Diego, Calif. 92121-1106.
# A Coulter Elite engineered with a triple laser system was used to analyze all samples. Coulter control beads were used to align lasers for the dual label testing of cell samples. Laser alignment was required for both the Argon (488 nm line) laser and HeNe (633 nm line) laser. These alignments were performed prior to all measurements with the Argon laser (488 nm line) using fluorophores for FITC, RPE, PI and the HeNe laser (633 nm line) for the Cy5 fluorophores being used for the experiments described below. The histographs, voltage settings, gates, color compensation, and pressures were established prior to all sample processing.
# (a) Tissue culture cells (MLC-SV40, LNCaP and C 4-2B) were aliquoted at concentration of 1×10^6 per teach 12×75 mm polystyrene tube. […]
# C4-2B cell line = assay: Dose-response kinetics of UC28 protein expression by flow cytometry; assay type: cell-based, human
# Experimental: (§2) Cells were grown to 70-80% confluence at 37° C. and 5% CO2 in T-75 tissue culture plastic flasks. SPB stock solution was added to final concentrations of 0.5, 5.0, 10.0, and 25.0 mM in appropriate fresh media to the cell cultures. Cells were incubated at 37° C. and 5% CO2 for 72 hours. Attached cells were then harvested using a solution of 0.05% trypsin and 0.53 mM EDTA (Invitrogen Corp.). Attached cells were then pooled with any the detached cells and washed with PBS pH 7.2. Cell numbers and percent viability were determined using Trypan blue dye exclusion and a hemacytometer. At the time of their use in an experiment the viability was usually about 85% for untreated cells and a range of about 15-70% for treated cells, with the lower viabilities found at higher SPB concentrations (Thompson C, 1995; Cory et al., 1998; van Engeland et al., 1996). UC28(C) is 2.14 mg/ml rabbit polyclonal aliquot directed against the inventors' UC28 patented biomarker developed by UCor R&D gene discovery program. The Antibody was produced against a twenty amino acid (AA) synthetic peptide from the predicted AA sequence (AA 21-37) UCor, Inc. 840 Research Parkway Oklahoma City, Okla. 73104. Goat Anti-Rabbit CY5 polyclonal Fluorchrome was used as the secondary conjugate for UC28 C rabbit polyclonal antibody and a background control for UC28 C polyclonal. Vendor is Jackson ImmunoResearch Laboratories, Inc. 872 West Baltimore Pike, P.O. Box 9 West Grove, Pa. 19390. A Coulter Elite engineered with a triple laser system was used to analyze all samples. Coulter control beads were used to align lasers for the dual label testing of cell samples. Laser alignment was required for both the Argon (488 nm line) laser and HeNe (633 nm line) laser. These alignments were performed prior to all measurements with the Argon laser (488 nm line) using fluorophores for FITC, RPE, PI and the HeNe laser (633 nm line) for the Cy5 fluorophores being used for the experiments described below. The histographs, voltage settings, gates, color compensation, and pressures were established prior to all sample processing. […] The data confirms the biological differences in these three cell lines and provides a stronger basis upon which to assess the behavior of the UC28 gene under the same SPB treatment conditions. For both of these experiments, supernatants were collected from the same experiments as in Example 1; cells were collected and assayed for apoptosis as well as for UC28 antigen expression using antibodies to SEQ ID NO:4.
# LNCaP cell line = assay: as above; assay type: cell-based, human
# Experimental: as §2
# [1] = Percent viability by Trypan blue dye exclusion after SPB treatment; assay type: cell-based; details: prostate cell lines, treated cells, SPB 0.5-25.0 mM, untreated cells about 85%
# Experimental: as §1
smiles,measurement,setting,value
"O=C([O-])CCCc1ccccc1.[Na+] [SPB, 4-Phenylbutyric Acid, Sodium Salt]",Total Bcl-2,LNCaP Prostate Cell Line; 5.0 mM SPB,23.8%
same,Total UC2BC,LNCaP Prostate Cell Line; 5.0 mM SPB,87.7%
same,Total Bcl-2,LNCaP Prostate Cell Line; 10 mM SPB,15.6%
same,Total UC2BC,LNCaP Prostate Cell Line; 10 mM SPB,83.0%
same,UC28 membrane protein expression,"C4-2B cell line; 0.5 to 25 mM SPB, C4-2B",dramatically over expressing
same,URCO28 expression,C4-2B cell line; C4-2B treated with SPB,remained elevated
same,UC28 membrane protein expression,"LNCaP cell line; 0.5 to 25 mM SPB, LNCaP",dramatically over expressing
same,URCO28 expression,LNCaP cell line; LNCap treated with SPB,remained elevated
same,viability at 72 h,[1],15 to 70%
